Measured values taken from ChEMBL document CHEMBL1136320, “Substrate properties of C5-substituted pyrimidine 2'-deoxynucleoside 5'-triphosphates for thermostable DNA polymerases during PCR” (Bioorg Med Chem Lett, 2003).

Assays:
[1] = system: Nucleic Acid; experiment: Amount of full-length DNA product formed using Taq polymerase; No product detected; type: functional
[2] = system: Nucleic Acid; experiment: Amount of full-length DNA product formed using polymerase A Thermo Sequenase; No product detected; type: nucleic-acid assay
[3] = system: Nucleic Acid; experiment: Amount of full-length DNA product formed using polymerase B Deep vent (exo); type: nucleic-acid assay
[4] = system: Nucleic Acid; experiment: Amount of full-length DNA product formed using polymerase B Pfu; type: nucleic-acid assay
[5] = system: Nucleic Acid; experiment: Amount of full-length DNA product formed using polymerase B Pwo; type: nucleic-acid assay
[6] = system: Nucleic Acid; experiment: Amount of full-length DNA product formed using polymerase B Vent (exo); range is 35-70%; type: nucleic-acid assay
[7] = system: Nucleic Acid; experiment: Amount of full-length DNA product formed using polymerase A Tth; No product detected; type: nucleic-acid assay
[8] = system: Nucleic Acid; experiment: Amount of full-length DNA product formed using polymerase B Deep vent (exo); No product detected; type: nucleic-acid assay
[9] = system: Nucleic Acid; experiment: Amount of full-length DNA product formed using polymerase B Pfu; No product detected; type: nucleic-acid assay
[10] = system: Nucleic Acid; experiment: Amount of full-length DNA product formed using polymerase B Pwo; No product detected; type: nucleic-acid assay
[11] = system: Nucleic Acid; experiment: Amount of full-length DNA product formed using polymerase B Vent (exo); No product detected; type: nucleic-acid assay
[12] = system: Nucleic Acid; experiment: Amount of full-length DNA product formed using polymerase B Pwo; range is 35-70%; type: nucleic-acid assay

NCCOCCOCc1cn(C2CC(O)C(COP(=O)(O)OP(=O)(O)OP(=O)(O)O)O2)c(=O)[nH]c1=O (stereo unspecified)
Activity [1]: Not detected | Activity [2]: Not detected | Activity [3]: < 35% | Activity [4]: < 35% | Activity [5]: < 35% | Activity [6]: 35% | Activity [7]: Not detected

CC#Cc1cn(C2CC(O)C(COP(=O)(O)OP(=O)(O)OP(=O)(O)O)O2)c(=O)nc1N (stereo unspecified)
Activity [1]: Not detected | Activity [2]: Not detected | Activity [8]: Not detected | Activity [9]: Not detected | Activity [10]: Not detected | Activity [11]: Not detected | Activity [7]: Not detected

NCCOCCOCc1cn(C2CC(O)C(COP(=O)(O)OP(=O)(O)OP(=O)(O)O)O2)c(=O)nc1N (stereo unspecified)
Activity [1]: Not detected | Activity [2]: Not detected | Activity [3]: < 35% | Activity [4]: < 35% | Activity [12]: 35% | Activity [6]: 35% | Activity [7]: Not detected
